Measurements taken from ChEMBL document CHEMBL3882725, “Indazole derivatives as JNK inhibitors and compositions and methods related thereto” (2002).

Target: Mitogen-activated protein kinase 9 (Homo sapiens, UniProt P45984)
Assay: Inhibition of His6-tagged JNK2 (unknown origin) assessed as reduction in c-Jun phosphorylation using GST-c-Jun (1 to 79 residues) and [gamma32P]ATP incubated for 1 hr by scintillation counting assay

Chain of Mitogen-activated protein kinase 9 (P45984 whole entry, the tested form may be a part): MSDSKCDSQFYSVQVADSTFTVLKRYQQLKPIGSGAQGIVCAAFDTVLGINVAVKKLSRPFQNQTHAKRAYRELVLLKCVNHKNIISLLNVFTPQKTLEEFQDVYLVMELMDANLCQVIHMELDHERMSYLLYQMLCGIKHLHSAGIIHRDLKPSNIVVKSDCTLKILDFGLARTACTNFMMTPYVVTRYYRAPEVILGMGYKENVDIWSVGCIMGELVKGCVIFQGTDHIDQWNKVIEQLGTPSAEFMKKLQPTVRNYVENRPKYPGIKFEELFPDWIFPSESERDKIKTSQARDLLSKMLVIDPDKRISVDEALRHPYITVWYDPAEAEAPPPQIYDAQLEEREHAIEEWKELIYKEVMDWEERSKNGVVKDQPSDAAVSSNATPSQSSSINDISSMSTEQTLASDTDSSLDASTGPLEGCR

Row | IC50 [µM] | Compound
1 | 1 to 10 | Fc1ccc(-c2n[nH]c3ccc(-c4cc[nH]n4)cc23)cc1
2 | ≤ 10 | COc1ccccc1C(=O)Nc1ccc2[nH]nc(-c3ccc(F)cc3)c2c1
3 | ≤ 10 | Fc1ccc(-c2n[nH]c3ccc(NCc4cccnc4)cc23)cc1
4 | 1 to 10 | O=C(Nc1ccc2[nH]nc(-c3ccc(F)cc3)c2c1)c1ccccc1O
5 | 1 to 10 | Cc1ccccc1C(=O)Nc1ccc2[nH]nc(-c3ccc(F)cc3)c2c1
6 | ≤ 10 | Fc1ccc(-c2n[nH]c3ccc(-c4nc5ccccc5[nH]4)cc23)cc1
7 | 1 to 10 | O=C(Nc1cccnc1)c1ccc2[nH]nc(-c3ccc(F)cc3)c2c1
8 | 1 to 10 | O=C(NCc1ccncc1)c1ccc2[nH]nc(-c3ccc(F)cc3)c2c1
9 | ≤ 10 | O=C(Nc1ccccc1)c1ccc2[nH]nc(-c3ccc(F)cc3)c2c1
10 | 1 to 10 | O=C(Nc1ccncc1)c1ccc2[nH]nc(-c3ccc(F)cc3)c2c1
11 | 1 to 10 | O=C(Nc1ccc2[nH]nc(-c3ccc(F)cc3)c2c1)c1cccs1
12 | 1 to 10 | O=C(O)c1cccc(C(=O)Nc2ccc3[nH]nc(-c4ccc(F)cc4)c3c2)c1
13 | ≤ 10 | O=C(Nc1ccc(F)cc1)Nc1ccc2[nH]nc(-c3ccc(F)cc3)c2c1
14 | 1 to 10 | O=C(Nc1ccc2[nH]nc(-c3ccc(F)cc3)c2c1)c1ccncc1
15 | 1 to 10 | O=C(Nc1cccc(O)c1)c1ccc2[nH]nc(-c3ccc(F)cc3)c2c1
16 | 1 to 10 | O=C(Nc1ccc2[nH]nc(-c3ccc(F)cc3)c2c1)c1ccccc1
17 | 0.5 to 10 | Fc1ccc(-c2n[nH]c3ccc(-c4nn[nH]n4)cc23)cc1
18 | 1 to 10 | O=C(Nc1ccc2[nH]nc(-c3ccc(F)cc3)c2c1)c1ccco1
19 | ≤ 10 | CCNc1ccc2[nH]nc(-c3ccc(F)cc3)c2c1
20 | ≤ 10 | O=C(Nc1ccccn1)c1ccc2[nH]nc(-c3ccc(F)cc3)c2c1
21 | 1 to 10 | O=C(O)c1ccc(C(=O)Nc2ccc3[nH]nc(-c4ccc(F)cc4)c3c2)cc1
22 | 1 to 10 | O=C(Nc1ccc2[nH]nc(-c3ccc(F)cc3)c2c1)c1ccccn1
23 | ≤ 10 | Nc1ccc2[nH]nc(-c3ccc(F)cc3)c2c1
24 | 1 to 10 | O=C(Nc1ccc2[nH]nc(-c3ccc(F)cc3)c2c1)c1cccnc1
25 | 1 to 10 | Fc1ccc(-c2n[nH]c3ccc(-c4ncc[nH]4)cc23)cc1
26 | 1 to 10 | Nc1cccc(NC(=O)c2ccc3[nH]nc(-c4ccc(F)cc4)c3c2)c1
27 | 1 to 10 | NC(=O)c1ccc(C(=O)Nc2ccc3[nH]nc(-c4ccc(F)cc4)c3c2)cc1

Further lines, the compound ahead of its results:

Row | Compound | IC50 [µM]
28 | CN(C)C(=O)c1ccc2[nH]nc(-c3ccc(F)cc3)c2c1 | ≤ 10
29 | COc1ccc(-c2n[nH]c3ccc(NC(=O)c4ccc(C(=O)O)cc4)cc23)cc1 | 1 to 10
30 | Oc1ccc2[nH]nc(-c3ccccc3)c2c1 | 1 to 10
31 | Nc1ccc2[nH]nc(-c3ccccc3)c2c1 | ≤ 10
32 | CNC(=O)c1ccc2[nH]nc(-c3ccc(F)cc3)c2c1 | 1 to 10
33 | COc1ccc(-c2n[nH]c3ccc(N)cc23)cc1 | ≤ 10
34 | CCOC(=O)c1ccc2[nH]nc(-c3ccc(F)cc3)c2c1 | 1 to 10
35 | O=C(O)Cc1ccc(NC(=O)c2ccc3[nH]nc(-c4ccc(F)cc4)c3c2)cc1 | 1 to 10
36 | CN(C)CCNC(=O)c1ccc2[nH]nc(-c3ccc(F)cc3)c2c1 | ≤ 10
37 | Nc1ccc2[nH]nc(-c3cccc(C(F)(F)F)c3)c2c1 | ≤ 10
38 | NC(=O)c1ccc(NC(=O)c2ccc3[nH]nc(-c4ccc(F)cc4)c3c2)cc1 | 1 to 10
39 | COC(=O)c1ccc(C(=O)Nc2ccc3[nH]nc(-c4ccc(F)cc4)c3c2)cc1 | ≤ 10
40 | O=S(=O)(Nc1ccc2[nH]nc(-c3ccc(F)cc3)c2c1)c1ccccc1 | ≤ 10
41 | O=C(c1ccc2[nH]nc(-c3ccc(F)cc3)c2c1)N1CCCC1 | ≤ 10
42 | FC(F)(F)c1ccc2[nH]nc(-c3ccccc3)c2c1 | ≤ 10
43 | O=C(O)CCCNC(=O)c1ccc2[nH]nc(-c3ccc(F)cc3)c2c1 | 1 to 10
44 | O=C(O)c1ccc(C(=O)Nc2ccc3[nH]nc(-c4ccccc4)c3c2)cc1 | 1 to 10
45 | O=C(Nc1ccc2[nH]nc(-c3ccccc3)c2c1)c1ccccc1O | 1 to 10
46 | O=C(Nc1ccc2[nH]nc(-c3ccccc3)c2c1)c1ccccn1 | 1 to 10
47 | CC(C)(C)OC(=O)CCNC(=O)c1ccc2[nH]nc(-c3ccc(F)cc3)c2c1 | ≤ 10
48 | CC(C)(C)OC(=O)CNC(=O)c1ccc2[nH]nc(-c3ccc(F)cc3)c2c1 | 1 to 10
49 | O=C(Nc1ccc2[nH]nc(-c3ccc(F)cc3)c2c1)C1CC1 | ≤ 10
50 | CNC(=O)c1ccc(C(=O)Nc2ccc3[nH]nc(-c4ccc(F)cc4)c3c2)cc1 | 1 to 10
51 | Nc1ccc(C(=O)Nc2ccc3[nH]nc(-c4ccccc4)c3c2)cc1 | 1 to 10
52 | O=[N+]([O-])c1ccc2[nH]nc(-c3cccc4ccccc34)c2c1 | ≤ 10
53 | CCOc1cccc(-c2n[nH]c3ccc([N+](=O)[O-])cc23)c1 | ≤ 10
54 | O=C(O)c1ccc(CNC(=O)c2ccc3[nH]nc(-c4ccc(F)cc4)c3c2)cc1 | 1 to 10
55 | Fc1ccc(-c2n[nH]c3ccc(NCc4ccncc4)cc23)cc1 | 1 to 10

Row | Compound | IC50 [µM]
56 | O=C(O)CCCCNC(=O)c1ccc2[nH]nc(-c3ccc(F)cc3)c2c1 | 1 to 10
57 | NC(=O)c1ccc2[nH]nc(-c3ccc(F)cc3)c2c1 | 1 to 10
58 | CC(=O)Nc1ccc2[nH]nc(-c3ccccc3)c2c1 | 1 to 10
59 | O=C(Nc1ccc2[nH]nc(-c3ccc(F)cc3)c2c1)N1CCOCC1 | ≤ 10
60 | O=C(O)C1CCN(C(=O)c2ccc3[nH]nc(-c4ccc(F)cc4)c3c2)CC1 | ≤ 10
61 | c1ccc(COc2ccc3[nH]nc(-c4ccccc4)c3c2)cc1 | ≤ 10
62 | O=C(O)c1ccc(NC(=O)c2ccc3[nH]nc(-c4ccc(F)cc4)c3c2)cc1 | 1 to 10
63 | COc1ccc(-c2n[nH]c3ccc([N+](=O)[O-])cc23)cc1OC | ≤ 10
64 | O=[N+]([O-])c1ccc2[nH]nc(-c3cccc(C(F)(F)F)c3)c2c1 | ≤ 10
65 | O=C(Nc1cccc([N+](=O)[O-])c1)c1ccc2[nH]nc(-c3ccc(F)cc3)c2c1 | 1 to 10
66 | CCOC(=O)C1CCN(C(=O)c2ccc3[nH]nc(-c4ccc(F)cc4)c3c2)CC1 | ≤ 10
67 | COC(=O)c1ccc(NC(=O)c2ccc3[nH]nc(-c4ccc(F)cc4)c3c2)cc1 | ≤ 10
68 | O=C(O)CCNC(=O)c1ccc2[nH]nc(-c3ccc(F)cc3)c2c1 | 1 to 10
69 | O=[N+]([O-])c1ccc2[nH]nc(-c3ccoc3)c2c1 | ≤ 10
70 | COC(=O)c1cccc(C(=O)Nc2ccc3[nH]nc(-c4ccc(F)cc4)c3c2)c1 | ≤ 10
71 | Cc1ccc2[nH]nc(-c3ccccc3)c2c1 | ≤ 10
72 | O=C(O)c1ccc(C(=O)Nc2ccc3[nH]nc(-c4ccncc4)c3c2)cc1 | 1 to 10
73 | O=C(Nc1ccc2[nH]nc(-c3ccccc3)c2c1)c1ccccc1 | 1 to 10
74 | O=C(O)CNC(=O)c1ccc2[nH]nc(-c3ccc(F)cc3)c2c1 | 1 to 10
75 | O=[N+]([O-])c1ccc2[nH]nc(-c3ccc4ccccc4c3)c2c1 | ≤ 10
76 | COc1ccc(-c2n[nH]c3ccc([N+](=O)[O-])cc23)cc1 | ≤ 10
77 | NCCNC(=O)c1ccc2[nH]nc(-c3ccc(F)cc3)c2c1 | ≤ 10
78 | Fc1ccc(-c2n[nH]c3ccc(-c4nnc[nH]4)cc23)cc1 | 0.5 to 10
79 | Nc1cccc(C(=O)Nc2ccc3[nH]nc(-c4ccccc4)c3c2)c1 | 1 to 10
80 | O=C(O)c1ccc2[nH]nc(-c3ccc(F)cc3)c2c1 | 1 to 10
81 | NCCCNC(=O)c1ccc2[nH]nc(-c3ccc(F)cc3)c2c1 | 1 to 10
82 | O=[N+]([O-])c1ccc2[nH]nc(-c3ccccc3)c2c1 | ≤ 10
